Experimental data: patent publication US8338334B2, “Synergistic herbicidal composition containing fluroxypyr and quinclorac” (Dow AgroSciences, LLC, priority 2010, dated 2012)
Where “and” joins values, the source holds several entries; their conditions need not be identical. Identical values can stand only once.

How the values were obtained:
Assay in all cases: Postemergence herbicidal activity in the greenhouse, visual weed control
Type in all cases: in vivo
Details in all cases: 21 DAA
[1] = tested on: barnyardgrass (Echinochloa crus-galli; ECHCG)
Description: (§1) Seeds of the desired test plant species were planted in 80% mineral soil/20% grit planting mixture, which typically has a pH of 7.2 and an organic matter content of about 2.9 percent, in plastic pots with a surface area of 128 square centimeters (cm^2). The growing medium was steam sterilized. The plants were grown for 7-19 days in a greenhouse with an approximate 14-hour (h) photoperiod which was maintained at about 29° C. during the day and 26° C. during the night. Nutrients and water were added on a regular basis and supplemental lighting was provided with overhead metal halide 1000-Watt lamps as necessary. The plants were treated with postemergence foliar applications when they reached the third to fourth true leaf stage. All treatments were applied using a randomized complete block trial design, with 4 replications per treatment.
(§2) Treatments consisted of the compounds as listed in Table 1 for each compound applied alone and in combination. Formulated amounts of quinclorac and fluroxypyr-meptyl ester were placed in 60 milliliter (mL) glass vials and dissolved in a volume of 60 mL of a water solution containing Agri-dex crop oil concentrate in a 1% volume per volume (v/v) ratio. Compound requirements are based upon a 12 mL application volume at a rate of 187 liters per hectare (L/ha). Spray solutions of the mixtures were prepared by adding the stock solutions to the appropriate amount of dilution solution to form 12 mL spray solution with active ingredients in single and two way combinations. Formulated compounds were applied to the plant material with an overhead Mandel track sprayer equipped with 8002E nozzles calibrated to deliver 187 L/ha at a spray height of 18 inches (43 centimeters (cm)) above average plant canopy.
(§3) The treated plants and control plants were placed in a greenhouse as described above and watered by sub-irrigation to prevent wash-off of the test compounds. Treatments were rated at 21 days after application (DAA) as compared to the untreated control plants. Visual weed control was scored on a scale of 0 to 100 percent where 0 corresponds to no injury and 100 corresponds to complete kill.
(§4) All treatment results, both for the single product and mixtures, are an average of 4 replicates evaluated at 21 days after application, and the tank mix interactions are significant at the […] level.
(§5) Colby's equation was used to determine the herbicidal effects expected from the mixtures (Colby, S. R. Calculation of the synergistic and antagonistic response of herbicide combinations. Weeds 1967, 15, 20-22.).
(§6) The following equation was used to calculate the expected activity of mixtures containing two active ingredients, A and B: Expected=A+B−(A×B/100)

[2] = tested on: Chinese sprangletop (Leptochloa chinensis; LEFCH)
Description: as §1, §2, §3, §4, §5, §6

[3] = tested on: broadleaf signalgrass (Brachiaria platyphylla; BRAPP)
Description: as §1, §2, §3, §4, §5, §6

[4] = fluroxypyr-meptyl 50 g ae/ha alone
[5] = fluroxypyr-meptyl 100 g ae/ha alone
[6] = fluroxypyr-meptyl 200 g ae/ha alone

Compound	% Control ECHCG Ob (observed value) ([1]; quinclorac 26 g ai/ha alone) [%]	% Control ECHCG Ob (observed value) ([1]; quinclorac 53 g ai/ha alone) [%]	% Control ECHCG Ob (observed value) ([1]; quinclorac 110 g ai/ha alone) [%]	% Control ECHCG Ob (observed value) ([1]; quinclorac 220 g ai/ha alone) [%]	% Control LEFCH Ob (observed value) ([2]; quinclorac 26 g ai/ha alone) [%]	% Control LEFCH Ob (observed value) ([2]; quinclorac 53 g ai/ha alone) [%]	% Control LEFCH Ob (observed value) ([2]; quinclorac 110 g ai/ha alone) [%]	% Control LEFCH Ob (observed value) ([2]; quinclorac 220 g ai/ha alone) [%]	% Control BRAPP Ob (observed value) ([3]; quinclorac 26 g ai/ha alone) [%]	% Control BRAPP Ob (observed value) ([3]; quinclorac 53 g ai/ha alone) [%]	% Control BRAPP Ob (observed value) ([3]; quinclorac 110 g ai/ha alone) [%]	% Control BRAPP Ob (observed value) ([3]; quinclorac 220 g ai/ha alone) [%]	% Control ECHCG Ob (observed value) [1, 4] [%]	% Control ECHCG Ob (observed value) [1, 5] [%]	% Control ECHCG Ob (observed value) [1, 6] [%]	% Control LEFCH Ob (observed value) [2, 5] [%]	% Control LEFCH Ob (observed value) [2, 6]	% Control BRAPP Ob (observed value) [3, 4] [%]	% Control BRAPP Ob (observed value) [3, 5] [%]	% Control BRAPP Ob (observed value) [3, 6] [%]
O=C(O)c1c(Cl)ccc2cc(Cl)cnc12 [Quinclorac, 3,7-dichloro-8-quinolinecarboxylic acid]	5	6	31	65	5	10	15	11	5	6	5	26	–	–	–	–	–	–	–	–
CCCCCCC(C)OC(=O)COc1nc(F)c(Cl)c(N)c1Cl (centres unmarked) [Fluroxypyr-meptyl]	–	–	–	–	–	–	–	–	–	–	–	–	0	11	6	50	41% and 42%	5	1	5
